Source: ChEMBL document CHEMBL4342471, “Discovery of Thieno[2,3-d]pyrimidine-Based Hydroxamic Acid Derivatives as Bromodomain-Containing Protein 4/Histone Deacetylase Dual Inhibitors Induce Autophagic Cell Death in Colorectal Carcinoma Cells” (J Med Chem, 2020)

Experiments:
DLD-1 = assay: Antiproliferative activity against human DLD1 cells assessed as reduction in cell viability measured after 24 to 48 hrs by MTT assay; type: functional, cell-based
[1] = biological target: T1, Protein deacetylase HDAC6 (Homo sapiens, UniProt Q9UBN7); assay: Inhibition of HDAC6 (unknown origin) using biotinylated histone H3 KAc peptide (1 to 21 residues) as substrate by HTRF assay
T1 sequence (Q9UBN7 whole entry): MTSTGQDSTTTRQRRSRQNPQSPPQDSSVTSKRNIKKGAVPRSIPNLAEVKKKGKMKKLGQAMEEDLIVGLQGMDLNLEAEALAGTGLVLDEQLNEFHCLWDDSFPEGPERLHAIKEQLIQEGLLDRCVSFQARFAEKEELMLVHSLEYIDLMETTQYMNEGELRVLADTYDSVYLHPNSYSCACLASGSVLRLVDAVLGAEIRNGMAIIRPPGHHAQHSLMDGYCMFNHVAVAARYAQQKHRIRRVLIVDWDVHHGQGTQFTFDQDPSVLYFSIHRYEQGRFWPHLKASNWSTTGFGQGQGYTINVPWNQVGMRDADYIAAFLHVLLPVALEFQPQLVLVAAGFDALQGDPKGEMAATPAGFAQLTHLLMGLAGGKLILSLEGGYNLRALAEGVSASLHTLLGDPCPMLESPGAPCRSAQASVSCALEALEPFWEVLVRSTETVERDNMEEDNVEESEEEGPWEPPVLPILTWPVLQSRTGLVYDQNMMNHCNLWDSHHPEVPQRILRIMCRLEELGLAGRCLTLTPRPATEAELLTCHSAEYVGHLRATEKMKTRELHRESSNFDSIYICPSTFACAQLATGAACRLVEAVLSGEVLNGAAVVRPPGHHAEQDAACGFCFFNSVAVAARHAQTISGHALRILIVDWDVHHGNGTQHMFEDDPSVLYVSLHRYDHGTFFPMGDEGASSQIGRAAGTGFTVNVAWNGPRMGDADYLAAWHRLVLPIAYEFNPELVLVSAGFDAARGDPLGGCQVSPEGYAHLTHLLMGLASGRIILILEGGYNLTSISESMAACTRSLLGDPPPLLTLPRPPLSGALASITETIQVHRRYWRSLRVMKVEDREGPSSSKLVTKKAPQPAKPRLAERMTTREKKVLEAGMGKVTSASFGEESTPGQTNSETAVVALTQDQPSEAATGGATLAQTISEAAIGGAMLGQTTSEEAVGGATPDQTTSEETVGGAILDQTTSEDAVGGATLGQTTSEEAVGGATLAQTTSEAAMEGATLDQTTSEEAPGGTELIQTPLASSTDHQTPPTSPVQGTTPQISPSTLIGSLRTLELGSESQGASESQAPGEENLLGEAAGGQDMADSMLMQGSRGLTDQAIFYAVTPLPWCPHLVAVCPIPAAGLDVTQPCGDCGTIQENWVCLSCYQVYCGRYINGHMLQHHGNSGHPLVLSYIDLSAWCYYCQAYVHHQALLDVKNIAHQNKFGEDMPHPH

Histone deacetylase 7 = biological target: T2, Histone deacetylase 7 (Homo sapiens, UniProt Q8WUI4); assay: Inhibition of HDAC7 (unknown origin) using biotinylated histone H3 KAc peptide (1 to 21 residues) as substrate by HTRF assay
T2 sequence (Q8WUI4 whole entry): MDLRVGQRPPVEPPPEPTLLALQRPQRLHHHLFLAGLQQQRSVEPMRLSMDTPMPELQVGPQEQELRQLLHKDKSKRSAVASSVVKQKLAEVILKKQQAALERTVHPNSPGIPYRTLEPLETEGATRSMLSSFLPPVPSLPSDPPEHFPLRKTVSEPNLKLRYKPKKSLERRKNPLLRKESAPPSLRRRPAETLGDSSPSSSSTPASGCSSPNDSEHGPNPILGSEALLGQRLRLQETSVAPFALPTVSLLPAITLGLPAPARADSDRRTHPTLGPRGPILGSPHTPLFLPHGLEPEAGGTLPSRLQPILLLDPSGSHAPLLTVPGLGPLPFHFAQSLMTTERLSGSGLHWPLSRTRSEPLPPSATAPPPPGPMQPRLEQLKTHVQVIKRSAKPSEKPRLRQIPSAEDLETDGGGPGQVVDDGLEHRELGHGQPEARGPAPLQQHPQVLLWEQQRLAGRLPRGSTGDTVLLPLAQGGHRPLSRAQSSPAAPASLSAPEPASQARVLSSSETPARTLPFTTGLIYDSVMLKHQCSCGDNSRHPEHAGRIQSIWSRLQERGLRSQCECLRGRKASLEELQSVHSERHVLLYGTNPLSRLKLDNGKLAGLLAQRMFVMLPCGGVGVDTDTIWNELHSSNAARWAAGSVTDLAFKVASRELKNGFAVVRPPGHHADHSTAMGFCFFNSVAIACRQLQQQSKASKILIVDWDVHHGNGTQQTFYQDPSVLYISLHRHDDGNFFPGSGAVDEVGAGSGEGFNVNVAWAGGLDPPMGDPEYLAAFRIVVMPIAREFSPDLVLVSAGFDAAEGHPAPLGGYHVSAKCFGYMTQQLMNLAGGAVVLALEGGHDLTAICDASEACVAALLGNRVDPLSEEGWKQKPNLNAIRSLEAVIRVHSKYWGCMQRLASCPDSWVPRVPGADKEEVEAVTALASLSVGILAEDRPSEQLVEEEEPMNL

[2] = biological target: Bromodomain-containing protein 4 (Homo sapiens, UniProt O60885); assay: Inhibition of GST-tagged BRD4 bromodomain (unknown origin) using biotinylated histone H4KAc peptide (1 to 21 residues) as substrate by HTRF assay
Histone deacetylase 2 = Histone deacetylase 2 (Homo sapiens, UniProt Q92769)
SW-620 = assay: Antiproliferative activity against human SW620 cells assessed as reduction in cell viability measured after 24 to 48 hrs by MTT assay; type: functional, cell-based
HCT-116 = assay: Antiproliferative activity against human HCT116 cells assessed as reduction in cell viability measured after 24 to 48 hrs by MTT assay; type: functional, cell-based

Chain of Histone deacetylase 2 (Q92769 whole entry): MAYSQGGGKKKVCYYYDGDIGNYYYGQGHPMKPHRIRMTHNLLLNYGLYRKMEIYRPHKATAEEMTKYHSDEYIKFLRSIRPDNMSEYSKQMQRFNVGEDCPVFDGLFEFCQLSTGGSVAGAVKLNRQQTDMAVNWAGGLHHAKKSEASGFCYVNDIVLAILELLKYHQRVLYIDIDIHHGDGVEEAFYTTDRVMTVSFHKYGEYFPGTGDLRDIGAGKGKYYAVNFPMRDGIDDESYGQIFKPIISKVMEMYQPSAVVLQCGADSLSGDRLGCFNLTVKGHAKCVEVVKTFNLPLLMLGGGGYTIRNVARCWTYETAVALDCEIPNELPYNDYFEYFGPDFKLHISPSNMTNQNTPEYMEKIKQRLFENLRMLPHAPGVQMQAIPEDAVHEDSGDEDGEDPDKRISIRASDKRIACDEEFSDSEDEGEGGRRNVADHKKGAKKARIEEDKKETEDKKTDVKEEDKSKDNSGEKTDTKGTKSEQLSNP

SMILES | IC50 (DLD-1) [µM] | IC50 [1] [µM] | IC50 (Histone deacetylase 7) [µM] | IC50 [2] [µM] | IC50 (Histone deacetylase 2) [µM] | IC50 (SW-620) [µM] | IC50 (HCT-116) [µM]
Cc1cc(-c2nc3sc4c(c3c(=O)[nH]2)CCN(C)C4)cc(C)c1OCc1cccc(C(=O)Nc2ccccc2N)c1 | > 10 | > 10 | > 10 | 3.48 | 0.86 | > 10 | 4.53
Cc1cc(-c2nc3sc4c(c3c(=O)[nH]2)CCN(C)C4)cc(C)c1OCc1ccc(C(=O)Nc2ccccc2N)cc1 | > 10 | > 10 | > 10 | 2.55 | 0.14 | 5.49 | 4.32
COC(=O)CCCCCN1CCc2c(sc3nc(-c4c(C)noc4C)[nH]c(=O)c23)C1 |  |  |  | 3.62 |  |  | 17
Cc1cc(-c2nc3sc4c(c3c(=O)[nH]2)CCN(C)C4)cc(C)c1OCCOCc1ccc(/C=C/C(=O)NO)cc1 | 3.04 | 0.159 | > 10 | 0.98 | 0.085 | 3.85 | 0.69
Cc1cc(-c2nc3sc4c(c3c(=O)[nH]2)CCN(C)C4)cc(C)c1OCc1ccc(C(=O)NO)cc1 | 6.24 | 0.188 | > 10 | 1.77 | 0.105 | 3.87 | 1.07
Cc1cc(-c2nc3sc4c(c3c(=O)[nH]2)CCC4)cc(C)c1O |  |  |  | 2.64 |  |  | 4.85
CCN1CCc2c(sc3nc(-c4cc(C)cc(C)c4)[nH]c(=O)c23)C1 |  |  |  | > 10 |  |  | > 10
Cc1cc(-c2nc3sc4c(c3c(=O)[nH]2)CCN(C)C4)cc(C)c1OCc1cccc(C(=O)NO)c1 | 9.16 | 0.78 | > 10 | 1.93 | 0.251 | 7.83 | 5.49
CCN1CCc2c(sc3nc(-c4ccccc4)[nH]c(=O)c23)C1 |  |  |  | > 10 |  |  | > 10
Cc1noc(C)c1-c1nc2sc3c(c2c(=O)[nH]1)CCN(C)C3 |  |  |  | 2.41 |  |  | 9.77
COC(=O)CCCN1CCc2c(sc3nc(-c4c(C)noc4C)[nH]c(=O)c23)C1 |  |  |  | 5.93 |  |  | 12.7
Cc1cc(-c2nc3sc4c(c3c(=O)[nH]2)CCN(Cc2ccccc2)C4)cc(C)c1O |  |  |  | > 10 |  |  | > 10
CCN1CCc2c(sc3nc(-c4cc(C)c(O)c(C)c4)[nH]c(=O)c23)C1 |  |  |  | 5.6 |  |  | 8.91
COC(=O)CN1CCc2c(sc3nc(-c4c(C)noc4C)[nH]c(=O)c23)C1 |  |  |  | 6.68 |  |  | 16.2
CN1CCc2c(sc3nc(-c4ccc(O)cc4)[nH]c(=O)c23)C1 |  |  |  | 6.31 |  |  | 8.68
Cc1cc(-c2nc3sc4c(c3c(=O)[nH]2)CCN(C)C4)cc(C)c1OCCCC(=O)NO | 9.72 | 0.25 | > 10 | 1.17 | 0.16 | 3.83 | 2.08
O=c1[nH]c(-c2ccccc2)nc2sc3c(c12)CCC3 |  |  |  | > 10 |  |  | > 10
Cc1cc(C)cc(-c2nc3sc4c(c3c(=O)[nH]2)CCN(C)C4)c1 |  |  |  | > 10 |  |  | > 10

SMILES | IC50 (DLD-1) [µM] | IC50 [1] [µM] | IC50 (Histone deacetylase 7) [µM] | IC50 [2] [µM] | IC50 (Histone deacetylase 2) [µM] | IC50 (SW-620) [µM] | IC50 (HCT-116) [µM]
Cc1cc(C)cc(-c2nc3sc4c(c3c(=O)[nH]2)CCCC4)c1 |  |  |  | > 10 |  |  | > 10
Cc1cc(-c2nc3sc4c(c3c(=O)[nH]2)CCCC4)cc(C)c1O |  |  |  | 1.81 |  |  | 5.41
CCN1CCc2c(sc3nc(-c4ccc(O)cc4)[nH]c(=O)c23)C1 |  |  |  | > 10 |  |  | > 10
Cc1cc(-c2nc3sc4c(c3c(=O)[nH]2)CCN(CCCCCC(=O)NO)C4)cc(C)c1O | > 10 | 0.129 | > 10 | > 10 | 0.136 | 15.8 | > 10
O=c1[nH]c(-c2ccccc2)nc2sc3c(c12)CCN(Cc1ccccc1)C3 |  |  |  | > 10 |  |  | > 10
Cc1noc(C)c1-c1nc2sc3c(c2c(=O)[nH]1)CCN(CC(=O)NO)C3 | 22.6 | 0.455 | > 10 | > 10 | 0.489 | 19.6 | 22.8
Cc1noc(C)c1-c1nc2sc3c(c2c(=O)[nH]1)CCN(CC(=O)Nc1ccccc1N)C3 | 15.2 | 0.391 | > 10 | > 10 | 0.352 | 15.2 | 28.3
Cc1cc(-c2nc3sc4c(c3c(=O)[nH]2)CCN(C)C4)cc(C)c1OCCCCCC(=O)Nc1ccccc1N | > 10 | > 10 | > 10 | 2.19 | 0.17 | 9.87 | 6.93
Cc1noc(C)c1-c1nc2sc3c(c2c(=O)[nH]1)CCN(CCCC(=O)NO)C3 | 19.6 | 0.464 | > 10 | > 10 | 0.282 | 9.86 | 18
O=c1[nH]c(-c2ccc(O)cc2)nc2sc3c(c12)CCC3 |  |  |  | 9.28 |  |  | > 10
O=c1[nH]c(-c2ccc(O)cc2)nc2sc3c(c12)CCCC3 |  |  |  | 5.77 |  |  | 9.73
Oc1nc(-c2ccccc2)nc2sc3c(c12)CCCC3 |  |  |  | > 10 |  |  | > 10
Cc1noc(C)c1-c1nc2sc3c(c2c(=O)[nH]1)CCN(CCCCCC(=O)NO)C3 | 16.8 | 0.156 | > 10 | > 10 | 0.135 | 8.47 | 15.3
Cc1cc(C)cc(-c2nc3sc4c(c3c(=O)[nH]2)CCC4)c1 |  |  |  | > 10 |  |  | > 10
CN1CCc2c(sc3nc(-c4ccccc4)[nH]c(=O)c23)C1 |  |  |  | > 10 |  |  | > 10
Cc1cc(-c2nc3sc4c(c3c(=O)[nH]2)CCN(C)C4)cc(C)c1OCc1ccc(/C=C/C(=O)NO)cc1 | 3.67 | 0.202 | > 10 | 1.19 | 0.097 | 2.34 | 0.92
O=c1[nH]c(-c2ccc(O)cc2)nc2sc3c(c12)CCN(Cc1ccccc1)C3 |  |  |  | > 10 |  |  | > 10
Cc1cc(C)cc(-c2nc3sc4c(c3c(=O)[nH]2)CCN(Cc2ccccc2)C4)c1 |  |  |  | > 10 |  |  | > 10
